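Protocol summary: plate cells (96-well), add compound at 5 concentrations, incubate 48 h, interpolate endpoints linearly. GI50 marks 50% less growth. TGI marks complete inhibition of growth.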 Where only a bound is given, the exact number is not on record here.

Results on nine molecules are retold here after PubChem BioAssay (NCI).

Some test systems named below: 786-0 renal; A549 NSCLC; ACHN renal; CAKI-1 renal; DU-145 prostate; HCC-2998 colon; LOX IMVI melanoma; NCI-H23 lung; LXFL 529 NSCLC; M19-MEL melanoma.
What all share (experiment): growth of human tumour cells (NCI), 48 h

Take `Cc1cc(=O)oc2ccc(OC/C=C3\CCC(=O)O3)cc12`: the GI50 is 2.7 µM in the assay on 786-0 renal; 17 µM with A549 NSCLC; 0.936 µM with ACHN renal; 2.72 µM with CAKI-1 renal; 3.62 µM in the assay on DU-145 prostate; 14.7 µM with HCC-2998 colon. Besides, the figures for the GI50 in the assay with LOX IMVI melanoma and in the assay with NCI-H23 lung were 4.94 µM and 10.4 µM, respectively. Besides, the TGI stood at 14.2 µM with 786-0 renal; 33 µM in the assay on A549 NSCLC; 2.14 µM in the assay with ACHN renal; 14.8 µM in the assay with CAKI-1 renal; 17.7 µM with DU-145 prostate; 28.1 µM in the assay with HCC-2998 colon. The figures for the TGI in the assay with LOX IMVI melanoma and with NCI-H23 lung were 17.2 µM and 25.2 µM, respectively.
As to `CN1CCN(CC(=O)N(C)c2ccc(N=C(c3ccccc3)c3c(O)[nH]c4ccc(C#N)cc34)cc2)CC1`, the GI50 was 2.3 µM in the assay on 786-0 renal; 3.13 µM with A549 NSCLC; 3.06 µM in the assay with ACHN renal; 1.26 µM in the assay on CAKI-1 renal; 3.9 µM in the assay on DU-145 prostate; 3.38 µM with HCC-2998 colon. In addition, the GI50 was 1.08 µM in the assay on LOX IMVI melanoma and 2.87 µM with NCI-H23 lung. The TGI in the assay on 786-0 renal came to 14.6 µM; in the assay with A549 NSCLC, 21.2 µM; with ACHN renal it was 10.9 µM; with CAKI-1 renal, 8.96 µM; with DU-145 prostate, 14.4 µM; in the assay on HCC-2998 colon, 13.4 µM. Further, the TGI was 2.58 µM in the assay with LOX IMVI melanoma and 12.2 µM in the assay on NCI-H23 lung.
`COc1ccc(C(O)c2cc3c(N)c(C(=O)Nc4ccc(Cl)cc4)sc3nc2C)cc1` (stereo not given): the GI50 in the assay with 786-0 renal was 8.2 µM; with A549 NSCLC, 3.53 µM; in the assay with ACHN renal it was 3.53 µM; in the assay on CAKI-1 renal, 2.79 µM; in the assay with DU-145 prostate, 2.71 µM; in the assay on HCC-2998 colon, 3.04 µM. In addition, the GI50 in the assay on LOX IMVI melanoma was 2.08 µM; in the assay on NCI-H23 lung it was 5.07 µM. Besides, the TGI in the assay with 786-0 renal was 31.8 µM; in the assay with A549 NSCLC it was 14.9 µM; in the assay on ACHN renal, 15.7 µM; with CAKI-1 renal it was 15.6 µM; in the assay with DU-145 prostate, 7.66 µM; in the assay with HCC-2998 colon, 20.8 µM. Further, the TGI in the assay with LOX IMVI melanoma is 13.2 µM; with NCI-H23 lung, 52.5 µM.
On to `CCOC(=O)[C@@H](C)C[C@H](Cc1ccccc1)NC(=O)c1csc([C@@H](C[C@H](C(C)C)N(C)C(=O)[C@@H](NC(=O)[C@H]2CCCCN2C)C(C)(C)CC)OC(C)=O)n1`, for which the GI50 was less than 0.00167 µM in the assay with 786-0 renal; less than 0.00167 µM with A549 NSCLC; 0.00225 µM in the assay on ACHN renal; 0.00176 µM with CAKI-1 renal; less than 0.00167 µM with DU-145 prostate; less than 0.00167 µM in the assay with HCC-2998 colon. Also, the GI50 was less than 0.00167 µM in the assay on LOX IMVI melanoma and 0.00251 µM with NCI-H23 lung. The TGI was 4.86 µM in the assay on 786-0 renal; greater than 16.7 µM in the assay on A549 NSCLC; greater than 14.1 µM in the assay on ACHN renal; greater than 9.4 µM in the assay with CAKI-1 renal; 2.77 µM in the assay on HCC-2998 colon; 6.08 µM in the assay on LOX IMVI melanoma. In the assay on NCI-H23 lung, this molecule gave a TGI greater than 16.7 µM.
With `COc1cc(/C=C2\C(=O)N(Cc3ccc(Cl)cc3)c3ccccc32)cc(OC)c1OC`, the GI50 is 3.37 µM in the assay on 786-0 renal; 4.27 µM in the assay with A549 NSCLC; 2.9 µM in the assay on ACHN renal; 2.92 µM in the assay on CAKI-1 renal; 2.05 µM in the assay with DU-145 prostate; 1.95 µM in the assay on HCC-2998 colon. For the same molecule, the figures for the GI50 in the assay with LOX IMVI melanoma and in the assay with NCI-H23 lung were 1.59 µM and 2.92 µM, respectively. The TGI came to 14.9 µM in the assay with 786-0 renal; 19.2 µM in the assay with A549 NSCLC; 8.37 µM with ACHN renal; 13.8 µM in the assay with CAKI-1 renal; 5.04 µM in the assay with DU-145 prostate; 4.28 µM in the assay with HCC-2998 colon. The TGI in the assay with LOX IMVI melanoma was found to be 3 µM; in the assay with NCI-H23 lung, 13.5 µM.
As to `Cn1cc(/C=C\[N+](=O)[O-])c2ccccc21`, the GI50 in the assay with 786-0 renal is greater than 100 µM; in the assay with A549 NSCLC, 46.4 µM; in the assay on ACHN renal, greater than 100 µM; with CAKI-1 renal it was 66.8 µM; in the assay with DU-145 prostate, 29.7 µM; in the assay with HCC-2998 colon, 33.2 µM. In addition, the results for the GI50 with LOX IMVI melanoma and in the assay on NCI-H23 lung were 18 µM and 74.7 µM, respectively. Besides, the TGI was greater than 100 µM in the assay with 786-0 renal; greater than 100 µM with A549 NSCLC; greater than 100 µM with ACHN renal; greater than 100 µM with CAKI-1 renal; 81.7 µM in the assay on DU-145 prostate; greater than 100 µM in the assay with HCC-2998 colon. Further, the figures for the TGI in the assay with LOX IMVI melanoma and in the assay with NCI-H23 lung were 36 µM and greater than 100 µM, respectively.
As for `CN=c1ss/c(=N\C(=S)N(C)C)n1C`, the TGI in the assay with 786-0 renal, in the assay with A549 NSCLC, with ACHN renal, with CAKI-1 renal, in the assay on HCC-2998 colon and in the assay on LXFL 529 NSCLC was greater than 100 µM throughout. Also, the TGI in the assay with M19-MEL melanoma and in the assay on NCI-H23 lung was greater than 100 µM throughout.
Turning to `O=C1NC(=S)S/C1=C\c1cn(-c2ccccc2)nc1-c1ccccc1`, the GI50 in the assay on 786-0 renal was 3.92 µM; in the assay on A549 NSCLC, 5.88 µM; with ACHN renal it was 7.4 µM; in the assay with CAKI-1 renal, 7.14 µM; in the assay with DU-145 prostate, 12.6 µM; in the assay on HCC-2998 colon, 6.05 µM. The GI50 with LOX IMVI melanoma was 10 µM; with NCI-H23 lung, 2.68 µM. Also, the TGI in the assay with 786-0 renal is 28.5 µM; in the assay on A549 NSCLC, greater than 100 µM; in the assay on ACHN renal, 21.4 µM; with CAKI-1 renal it was 51.8 µM; with DU-145 prostate it was greater than 100 µM; in the assay on HCC-2998 colon it was 47.1 µM. Also, the values for the TGI with LOX IMVI melanoma and with NCI-H23 lung were 55.4 µM and 15.9 µM, respectively.
On to `CCCCN(CCCC)C(=O)[C@H](CC)[C@@H]1CC[C@@H](C)[C@@H]([C@H](C)[C@@H](O)[C@@H](C)C(=O)[C@H](CC)C2O[C@]3(C=C[C@@H](O)[C@]4(CC[C@@](C)([C@H]5CC[C@](O)(CC)[C@H](C)O5)O4)O3)[C@H](C)C[C@@H]2C)O1` (stereo not given in full), for which the GI50 is 2.49 µM in the assay on 786-0 renal; 3.12 µM in the assay on A549 NSCLC; 3.04 µM in the assay on ACHN renal; 1.91 µM in the assay with CAKI-1 renal; 2.61 µM in the assay on DU-145 prostate; 2.01 µM with HCC-2998 colon. The values for the GI50 in the assay with LOX IMVI melanoma and with NCI-H23 lung were 1.43 µM and 2.17 µM, respectively. Also, the TGI was 7.44 µM in the assay on 786-0 renal; 34.4 µM in the assay on A549 NSCLC; 10.5 µM in the assay on ACHN renal; 9.02 µM in the assay on CAKI-1 renal; 6.42 µM in the assay on DU-145 prostate; 5.04 µM in the assay on HCC-2998 colon. The TGI was 2.97 µM in the assay with LOX IMVI melanoma and 5.96 µM in the assay with NCI-H23 lung.
